Assays:
CCRF-CEM [1] = test: Compound was tested for cellular toxicity against HIV in CEM cells at concentration up to 100 uM; IA means inactive; assay type: cell-based; details: human
CCRF-CEM [2] = test: The inhibitory dose against HIV in CEM cells was evaluated.; assay type: functional, Homo sapiens; details: read-out: ID50 (the source's name)

| SMILES | Toxicity (CCRF-CEM [1]) | other results |
| --- | --- | --- |
| Nc1ccn([C@@H]2C=C[C@H](CO)O2)c(=O)n1 | Not Active |  |
| Nc1ccn(C2CC[C@H](CO)O2)c(=O)n1 (single isomer, unassigned) | Not Active |  |
| Cc1cn([C@@H]2C=C[C@H](CO)O2)c(=O)[nH]c1=O | Not Active |  |
| Nc1ncnc2c1ncn2[C@H]1CC[C@@H](CO)O1 (single isomer, unassigned) | Not Active |  |
| Nc1ccn([C@@H]2CC[C@H](CO)O2)c(=O)n1 |  | IC50 (CCRF-CEM [2]; Homo sapiens, CCRF-CEM): 660 nM |
| Nc1ccn([C@H]2CC[C@@H](CO)O2)c(=O)n1 (stereo in doubt; form 1) [ZALCITABINE] |  | IC50 (CCRF-CEM [2]): < 100 nM |
| Nc1ccn([C@H]2CC[C@@H](CO)O2)c(=O)n1 (stereo in doubt; form 2) [ZALCITABINE] |  | IC50 (CCRF-CEM [2]): 40 nM |

— ChEMBL document CHEMBL1125943, “Preparation of the geometric isomers of DDC, DDA, D4C and D4T as potential anti-HIV agents” (Bioorg Med Chem Lett, 1991)
